Laboratory results published in US20040157892A1, “Pesticidal fluoroethyl pyrazoles” (CROMPTON CO./Cie, priority 2003, published 2004).

How the values were obtained:
Format in all cases: in vivo
[1] = tested on: Tetranychus urticae Motiles; test: mite contact (MIC) bioassay; conditions: 300 ppm, contact on bean leaf, evaluated five days later
Method: (§1) For each compound tested, a stock solution of 3000 ppm was prepared by diluting 0.008 gram of each compound into 2.67 mL of acetone and further diluting with water to make the final concentrations used for the various screens, as follows:
In the mite contact (MIC) bioassay, approximately 20 motile mites confined on a cowpea leaf were sprayed with a 300 ppm concentration and evaluated five days later.
(§2) Since only a single replicate was used for the DBM and SCR screens, confirmation of mortality in an additional evaluation with three larvae at the 100 ppm rate was required to substantiate the initial observation of activity.

[2] = tested on: Plutella xylostella Larva; test: diamondback moth (DBM) bioassay; conditions: 100 ppm, residual on diet, evaluated five days later, confirmed with three larvae
Method: as §1
In the diamondback moth (DBM) bioassay, a single larva was exposed to a diet with a surface that had been coated with a 100 ppm solution, and evaluated five days later.
as §2

[3] = tested on: Tetranychus urticae Eggs; test: mite ovicide (MIOV) bioassay; conditions: 100 ppm, contact on bean leaf, egg hatch evaluated nine days later
Method: as §1
In the mite ovicide (MIOV) bioassay, approximately 30 mite eggs on cowpea foliage were sprayed with a 100 ppm solution and egg hatch was evaluated nine days later.
as §2

| Compound | Pesticidal Activity MIC (control) [1] | Pesticidal Activity DBM (control) [2] | Pesticidal Activity MIOV (control) [3] |
| --- | --- | --- | --- |
| FCCn1cc(-c2ccc(Cl)s2)cn1 [Compound 6, 1-(2-fluoroethyl)-4-(5-chloro-2-thienyl)pyrazole] | 100% | 100% | 100% |
| CCOC(=O)c1sc(-c2cnn(CCF)c2)nc1C(F)(F)F [Compound 7, Ethyl 2-[1-(2-fluoroethyl)-4-pyrazolyl]-4-trifluoromethyl-5-thiazolecarboxylate] | 100% | – | 100% |
| FCCn1cc(-c2cccc(Cl)n2)cn1 [Compound 8, 1-(2-fluoroethyl)-4-(6-chloro-2-pyridyl)pyrazole] | 100% | – | 100% |
| FCCn1cc(C#Cc2ccc(Cl)cc2)cn1 [Compound 9, 1-(2-fluoroethyl)-4-[(4-chlorophenyl)ethynyl]pyrazole] | 100% | – | 100% |
| FCCn1cc(C#Cc2cccnc2)cn1 [Compound 10] | 100% | – | 100% |
| Isopropyl 1-(2-fluoroethyl)-3(or 5)-nitro-1H-pyrazole-5 (or 3)-carboxylate [Compound 1] | 100% | 100% | – |
